As usually defined, the kinetic solubility is solubility judged after dilution from a stock solution rather than from solid.

These results are taken from PubChem BioAssay AID1996.

Values after ≈ are worked out from the molar mass of the structure shown.

The conditions of the data set: buffer; pH 7.4; 200.0 µM.
As for `Cc1ccc(NC(=O)c2ccc(COc3ccccc3)o2)nc1`, the solubility (kinetic) was determined as 16 µg/mL (≈ 51.9 µM).

Take `O=C(Nc1ccncc1)c1cccc2ccccc12`: the solubility (kinetic) was over 37.2 µg/mL.

In turn, `CCOC(=O)CC(=O)COc1nc2cc3c(nc2o1)CCCC3` registered a kinetic solubility of over 47.7 µg/mL.

As for `Cc1cc(NC(=O)Cn2cnc3sc(C)c(C)c3c2=O)no1`, the kinetic solubility is 17.3 µg/mL (≈ 54.3 µM).

`CC(C)N1CCN(Cc2cccc3nonc23)CC1CCO` (configuration not stated) showed a solubility (kinetic) of 42.2 µg/mL (≈ 139 µM).

`CC(=O)N1CCN(Cc2nc3cc([N+](=O)[O-])ccc3n2C)CC1`: the solubility (kinetic) came out at 45.1 µg/mL (≈ 142 µM).

On to `Cc1ccccc1C(=O)N1CCC(C(=O)Oc2ccc(C#N)cc2)CC1`, for which the kinetic solubility is over 52.3 µg/mL.

Take `C=CCNc1nc2ccccc2c(=O)[nH]1`: the solubility (kinetic) turned out to be 29.1 µg/mL (≈ 145 µM).

In the case of `CC(=O)Nc1cccc(C(=O)NC(C)c2ccc(-n3ccnc3)cc2)c1` (configuration not stated), the kinetic solubility is 45.5 µg/mL (≈ 131 µM). This solubility kinetic is about 1.6-fold higher than that of the compound before.

Consider `CCOC(=O)CN1C(=O)C(=O)N(Cc2cccc(C)c2)C1=O`, for which the solubility (kinetic) was over 45.6 µg/mL.

For the compound `Cc1csc(NC(=O)Cc2c(F)cccc2Cl)n1`, the solubility (kinetic) worked out at 36.4 µg/mL (≈ 128 µM).

In the case of `O=C(Nc1ccccc1N1CCN(C(=O)c2ccccc2)CC1)c1ccco1`, the solubility (kinetic) was over 56.3 µg/mL.

In turn, `O=C1c2cccc3cccc(c23)C(=O)N1Cc1cccnc1` had a solubility (kinetic) of 1.6 µg/mL (≈ 5.55 µM).

Turning to `Cc1cc(C(=O)NC(=S)Nc2cccc(C(=O)O)c2C)ccc1[N+](=O)[O-]`, the solubility (kinetic) is over 56 µg/mL.

Take `Cc1ccccc1C(=O)NC1CCCCCCC1`: the kinetic solubility worked out at 30.2 µg/mL (≈ 123 µM).

As to `O=C(O)CN1C(=O)c2ccc(C(=O)c3ccccc3)cc2C1=O`, the solubility (kinetic) stood at 45.8 µg/mL (≈ 148 µM).

Regarding `COCCNC(=O)COc1cccc2c1OC(C)(C)C2`, the solubility (kinetic) was over 41.9 µg/mL.

`CCOC(=O)N1CCN(C(=O)c2ccc(OCC)cc2)CC1` came in with a solubility (kinetic) of over 46 µg/mL.

`COc1ccc(NC(=O)COC(=O)C2CCC2)cc1Cl`: the solubility (kinetic) came out at 42.8 µg/mL (≈ 144 µM).

Regarding `Cc1ccc(CN2CC(C(=O)N(C)CC(=O)Nc3cccc(F)c3)CC2=O)cc1` (configuration not stated), the kinetic solubility was 46.2 µg/mL (≈ 116 µM).

`COC(=O)CN1C(=O)N/C(=C/c2cc3c(cc2OC)OCO3)C1=O` gave a solubility (kinetic) of 6.3 µg/mL (≈ 18.8 µM).

Take `O=C(NCC(c1cccs1)N1CCOCC1)c1cnc(Cl)c(Cl)c1` (configuration not stated): the kinetic solubility was over 57.9 µg/mL.

As to `CCc1ccc(OC(=O)c2cncc(Br)c2)cc1`, the kinetic solubility amounted to 4 µg/mL (≈ 13.1 µM).

In turn, `O=C(COC(=O)c1c[nH]c2ccccc12)NC1CCCC1` displayed a solubility (kinetic) of over 42.9 µg/mL.

Compound `CCc1c(C)nc(SCC(=O)NC2CCCC2)[nH]c1=O` had a kinetic solubility of over 44.3 µg/mL.

`Cc1cc(C)n2nc(SCc3ccc(C#N)cc3)nc2n1`: the solubility (kinetic) was over 44.3 µg/mL.

Take `O=C(NC(=S)NC1CCCCC1)c1ccc(Cl)cc1`: the kinetic solubility was under 0.3 µg/mL.

`CC(=O)Nc1ccc(NCc2cccs2)cc1` registered a kinetic solubility of over 36.9 µg/mL.

For `Cn1c(SCc2ccccc2C#N)nnc1-c1ccncc1`, the solubility (kinetic) was over 46.1 µg/mL.

Compound `O=C(N/N=C\c1cccnc1)c1ccccc1O` gave a kinetic solubility of over 36.2 µg/mL.

Regarding `Cc1ccc(-c2csc(NC(=O)c3ccccc3Cl)c2C(=O)O)cc1`, the kinetic solubility is over 55.8 µg/mL.

For `COCCn1c(=S)[nH]c2sc3c(c2c1=O)CCCC3`, the solubility (kinetic) is over 44.5 µg/mL.

In turn, `O=C1NCC(COc2ccc(Cl)cc2)O1` (configuration not stated) returned a solubility (kinetic) of over 34.1 µg/mL.

`O=C(COC(=O)COc1ccc(Cl)cc1Cl)NC1CCS(=O)(=O)C1` (configuration not stated) came in with a solubility (kinetic) of over 59.4 µg/mL.

Compound `CCC12CN3CCN(CC(C3)/C1=N\NC(=O)c1ccc(F)cc1)C2` had a solubility (kinetic) of over 49.6 µg/mL.

Turning to `CNc1snc(C)c1C(=O)OC(C)C(=O)Nc1ccccc1` (configuration not stated), the kinetic solubility is 34.5 µg/mL (≈ 108 µM).

`CCCCn1c(SCC(=O)NC2CC2)nc2ccccc2c1=O`: the solubility (kinetic) was found to be 2.6 µg/mL (≈ 7.84 µM). This solubility kinetic lies about 13-fold lower than the previous one.

The compound `CN1C(=O)C(=O)N(c2cccc(C(F)(F)F)c2)C1=O` returned a solubility (kinetic) of 39.9 µg/mL (≈ 147 µM).

Compound `COc1ccc(CCN2C(=O)C(C)=C(C)C2=O)cc1OC` gave a kinetic solubility of over 43.4 µg/mL.

In the case of `Cc1csc(NC(=O)c2cnc3ccccc3n2)n1`, the kinetic solubility was 12.5 µg/mL (≈ 46.2 µM).

The compound `N#C/C(=C\c1cccnc1)C(=O)Nc1ccc(Cl)cc1` gave a solubility (kinetic) of 5.7 µg/mL (≈ 20.1 µM). Compared with the last compound, the solubility kinetic is about 2.2-fold lower.

Turning to `CCOC(=O)C1=C(C)NC2=C(C(=O)c3ccccc32)C1c1ccc([N+](=O)[O-])o1` (configuration not stated), the kinetic solubility was 7.4 µg/mL (≈ 19.5 µM).

For `NC(=O)CSc1nc2ccccc2nc1SCC(N)=O`, the kinetic solubility turned out to be 6.2 µg/mL (≈ 20.1 µM).

`COc1cccc(C(=O)NCCSc2c(C)[nH]c3ccccc23)c1OC` returned a kinetic solubility of 16.1 µg/mL (≈ 43.5 µM).

Take `Cc1ccc(NS(=O)(=O)c2ccc(C(C)C)cc2)cc1S(=O)(=O)N1CCOCC1`: the kinetic solubility came out at 27.4 µg/mL (≈ 62.5 µM).

In the case of `COCc1ccc(C(=O)Nc2ccc(C(=O)O)cc2)o1`, the kinetic solubility is over 41.3 µg/mL.

The compound `CCOc1ccc(N/C(=N/c2nc(C)cc(C)n2)NC(C)=O)cc1` came in with a solubility (kinetic) of 15.1 µg/mL (≈ 46.1 µM).

`O=CNCCCc1nc2ccccc2n1CCc1ccccc1` returned a kinetic solubility of over 46.1 µg/mL.

Take `COc1ccc(OC)c(CNC(=O)CCc2cn(C)c3ccccc23)c1`: the kinetic solubility was 12.7 µg/mL (≈ 36 µM).

`O=C(Nc1cccc([N+](=O)[O-])c1)c1ccccc1` registered a solubility (kinetic) of 9.6 µg/mL (≈ 39.6 µM).

The compound `O=Cc1cn(CC(O)CN2CCCCC2)c2ccccc12` (configuration not stated) came in with a solubility (kinetic) of over 43 µg/mL.

Consider `O=C(c1ccc2ccccc2c1)N1CCN(Cc2ccccc2)CC1`, for which the kinetic solubility was over 49.6 µg/mL.
